Source: ChEMBL document CHEMBL1201862, “PubChem BioAssay data set” (2004)
“And” between values parts separate entries of the source, which are not always exact repeats. Equal values may be shown once.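 96-well plates; 48 h exposure; 5 concentrations. Endpoints by linear interpolation between flanking doses. Not reached: highest tested concentration assigned. The concentration for 50% growth inhibition is given as GI50.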 The source made the active and inactive calls. No stated cut-off is given here; in the data, active = GI50 up to about 1.1 µM and inactive = higher.

Key:
Experiment in all cases: NCI anticancer screen, dose series, 48 h
[1] = system: CAKI-1
[2] = system: SF-539
[3] = system: CCRF-CEM
[4] = system: SR
[5] = system: SW-620
[6] = system: SF-295
[7] = system: OVCAR-3
[8] = system: UO-31
[9] = system: HCT-116
[10] = system: OVCAR-5
[11] = system: SK-MEL-28
[12] = system: SK-OV-3
[13] = system: PC-3
[14] = system: HT-29
[15] = system: DU-145
[16] = system: T47D
[17] = system: OVCAR-8
[18] = system: OVCAR-4
[19] = system: SK-MEL-2
[20] = system: EKVX

Structure (SMILES)	GI50 [1]	GI50 [2]	GI50 [3]	GI50 [4]	GI50 [5]	GI50 [6]	GI50 [7]	GI50 [8]	GI50 [9]	GI50 [10]	GI50 [11]	GI50 [12]	GI50 [13]	GI50 [14]	GI50 [15]	GI50 [16]	GI50 [17]	GI50 [18]	GI50 [19]	GI50 [20]
COC1C(OC(C)=O)CC(=O)OC(C)C/C=C/C=C\C(O)C(C)CC(CC=O)C1OC1OC(C)C(OC2CC(C)(O)C(OC(=O)CC(C)C)C(C)O2)C(N(C)C)C1O (stereo not given)	> 100 µM (inactive)	> 100 µM (inactive)	45.3 µM (inactive) and 33 µM (inactive)	24.6 µM (inactive) and 18.5 µM (inactive)	> 100 µM (inactive)	> 100 µM (inactive)	> 100 µM (inactive) and 96.8 µM (inactive)	64.9 µM (inactive) and 43.8 µM (inactive)	> 100 µM (inactive)	> 100 µM (inactive)	> 100 µM (inactive)	> 100 µM (inactive)	79.6 µM (inactive)	> 100 µM (inactive) and 67.9 µM (inactive)	97.9 µM (inactive)	> 100 µM (inactive)	> 100 µM (inactive)	> 100 µM (inactive) and 68.5 µM (inactive)	> 100 µM (inactive)	–
Cc1cc(=O)nc(Sc2ccc([N+](=O)[O-])cc2[N+](=O)[O-])[nH]1	15.1 µM (inactive)	–	0.822 µM (active)	6.27 µM (inactive)	3.72 µM (inactive)	> 50.5 µM (inactive)	17 µM (inactive)	17 µM (inactive)	10.2 µM (inactive)	17.9 µM (inactive)	20 µM (inactive)	71.8 µM (inactive)	22.2 µM (inactive)	3.55 µM (inactive)	17.2 µM (inactive)	17.5 µM (inactive)	15.9 µM (inactive)	> 39.4 µM (inactive)	20.6 µM (inactive)	32.7 µM (inactive)
CCCCOC(=O)NC(Nc1ccc(S(=O)(=O)Nc2ccc(OC)nn2)cc1)(C(F)(F)F)C(F)(F)F	> 100 µM (inactive)	> 100 µM (inactive)	> 100 µM (inactive)	> 100 µM (inactive)	> 100 µM (inactive)	> 100 µM (inactive)	> 100 µM (inactive)	> 100 µM (inactive)	> 100 µM (inactive)	> 100 µM (inactive)	> 100 µM (inactive)	> 100 µM (inactive)	> 100 µM (inactive)	> 100 µM (inactive)	> 100 µM (inactive)	> 100 µM (inactive)	> 100 µM (inactive)	> 100 µM (inactive)	–	> 100 µM (inactive)
CCOC(=O)Nc1ccc(C)c(NC(=O)OCC)c1	> 100 µM (inactive)	> 100 µM (inactive)	> 100 µM (inactive)	> 100 µM (inactive)	> 100 µM (inactive)	> 100 µM (inactive)	> 100 µM (inactive)	> 100 µM (inactive)	> 100 µM (inactive)	> 100 µM (inactive)	> 100 µM (inactive)	> 100 µM (inactive)	> 100 µM (inactive)	> 100 µM (inactive)	> 100 µM (inactive)	> 100 µM (inactive)	> 100 µM (inactive)	–	> 100 µM (inactive)	6.58 µM (inactive)
O=C(/C=C/c1cccs1)c1ccc(Cl)s1	83.4 µM (inactive)	28.6 µM (inactive)	25.1 µM (inactive)	25.2 µM (inactive)	23.3 µM (inactive)	37.8 µM (inactive)	–	19.9 µM (inactive)	18.2 µM (inactive)	54.3 µM (inactive)	29.2 µM (inactive)	67 µM (inactive)	40.6 µM (inactive)	> 10 µM (inactive)	56 µM (inactive)	35.1 µM (inactive)	37.9 µM (inactive)	48.5 µM (inactive)	> 100 µM (inactive)	> 100 µM (inactive)
